Assay results: US9145372B2, “Pyridazine derivatives, compositions and methods for treating cognitive impairment” (AGENEBIO, INC., priority 2010, dated 2015)
“Also recorded” adds a separate entry of the source.

What was measured:
[1] = tested on: aged-impaired (AI) rats; assay: Morris water maze behavioral task after ICV infusion; format: in vivo, rat; conditions: 100 μg ICV
Experimental: The effects of 6,6 dimethyl-3-(3-hydroxypropyl)thio-1-(thiazol-2-yl)-6,7-dihydro-2-benzothiophen-4(5H)-one on the in vivo spatial memory retention of aged-impaired (AI) rats were assessed in a Morris water maze behavioral task. A water maze is a pool surrounded with a novel set of patterns relative to the maze.
Cognitively impaired aged rats were implanted unilaterally with a cannula into the lateral ventricle. Stereotaxic coordinates were 1.0 mm posterior to bregma, 1.5 mm lateral to midline, and 3.5 mm ventral to the skull surface. After about a week of recovery, the rats were pre-trained in a water maze for 2 days (6 trials per day) to locate a submerged escape platform hidden underneath the surface of the pool, in which the escape platform location varied from day to day. No intracerebroventricular (ICV) infusion was given during pre-training
After pre-training, rats received ICV infusion of either 100 μg 6,6 dimethyl-3-(3-hydroxypropyl)thio-1-(thiazol-2-yl)-6,7-dihydro-2-benzothiophen-4(5H)-one (n=6) in 5 μl DMSO or vehicle DMSO (n=5) 40 min prior to water maze training and testing. Training consisted of 8 trials per day for 2 days where the hidden escape platform remained in the same location. Rats were given 60 seconds to locate the platform with a 60 seconds inter-trial interval. The rats were given a probe test (120 seconds) 24 hr after the end of training where the escape platform was removed. During the training, there were 4 blocks, where each block had 4 training trials.
Rats treated with vehicle and 6,6 dimethyl-3-(3-hydroxypropyl)thio-1-(thiazol-2-yl)-6,7-dihydro-2-benzothiophen-4(5H)-one found the escape platform about the same time at the beginning of training (block 1). In this block of training, rats treated with vehicle and 6,6 dimethyl-3-(3-hydroxypropyl)thio-1-(thiazol-2-yl)-6,7-dihydro-2-benzothiophen-4(5H)-one both spent about 24 seconds to find the escape platform. However, rats treated with 6,6 dimethyl-3-(3-hydroxypropyl)thio-1-(thiazol-2-yl)-6,7-dihydro-2-benzothiophen-4(5H)-one were able to find the platform more proficiently (i.e., quicker) at the end of training (block 4) than those treated with vehicle alone. In block 4, rats treated with 6,6 dimethyl-3-(3-hydroxypropyl)thio-1-(thiazol-2-yl)-6,7-dihydro-2-benzothiophen-4(5H)-one spent about 9.6 seconds to find the escape platform, while rats treated with vehicle spent about 19.69 seconds.
During a test trial 24 hr after training, the escape platform was removed. The search/swim pattern of the rats was used to measure whether the rats remember where the escape platform was located during pre-trial training in order to test for the long-term memory of the rats. […]

[2] = tested on: aged-impaired (AI) rats; assay: Radial Arm Maze (RAM) behavioral task, spatial memory retention; format: in vivo, rat; conditions: four-hour delay RAM
Experimental: The effects of methyl 3,5-diphenylpyridazine-4-carboxylate on the in vivo spatial memory retention of aged-impaired (AI) rats were assessed in a Radial Arm Maze (RAM) behavioral task using vehicle control and four different dosage levels of methyl 3,5-diphenylpyridazine-4-carboxylate (0.1 mg/kg, 0.3 mg/kg, 1 mg/kg and 3 mg/kg, ip). RAM behavioral tasks were performed on eight AI rats. All five treatment conditions (vehicle and four dosage levels) were tested on all eight rats.
The RAM apparatus used consisted of eight equidistantly-spaced arms. An elevated maze arm (7 cm width×75 cm length) projected from each facet of an octagonal center platform (30 cm diameter, 51.5 cm height). Clear side walls on the arms were 10 cm high and were angled at 65° to form a trough. A food well (4 cm diameter, 2 cm deep) was located at the distal end of each arm. Froot Loops™ (Kellogg Company) were used as rewards. Blocks constructed of Plexiglas™ (30 cm height×12 cm width) could be positioned to prevent entry to any arm. Numerous extra maze cues surrounding the apparatus were also provided.
The AI rats were initially subjected to a pre-training test (Chappell et al. Neuropharmacology 37: 481-487, 1998). The pre-training test consisted of a habituation phase (4 days), a training phase on the standard win-shift task (18 days) and another training phase (14 days) in which a brief delay was imposed between presentation of a subset of arms designated by the experimenter (e.g., 5 arms available and 3 arms blocked) and completion of the eight-arm win-shift task (i.e., with all eight arms available).
In the habituation phase, rats were familiarized to the maze for an 8-minute session on four consecutive days. In each of these sessions, food rewards were scattered on the RAM, initially on the center platform and arms and then progressively confined to the arms. After this habituation phase, a standard training protocol was used, in which a food pellet was located at the end of each arm. Rats received one trial each day for 18 days. Each daily trial terminated when all eight food pellets had been obtained or when either 16 choices were made or 15 minutes had elapsed. After completion of this training phase, a second training phase was carried out in which the memory demand was increased by imposing a brief delay during the trial. At the beginning of each trial, three arms of the eight-arm maze were blocked. Rats were allowed to obtain food on the five arms to which access was permitted during this initial “information phase” of the trial. Rats were then removed from the maze for 60 seconds, during which time the barriers on the maze were removed, thus allowing access to all eight arms. […]

[3] = molecular target: GABAA α5 receptor (Rattus norvegicus, UniProt P18508+P19969); assay: GABAA α5 receptor occupancy in vivo with Ro 15-4513 tracer (hippocampus vs cerebellum); conditions: i.v.
From the text: Adult male Long Evans rats (265-295 g, Charles River, Portage, Mich., n=4/group) were used for GABAA α5 receptor occupancy studies. Rats were individually housed in ventilated stainless-steel racks on a 12:12 light/dark cycle. Food and water were available ad libitum.
Ro 15-4513 was used as a receptor occupancy (RO) tracer for GABAA α5 receptor sites in the hippocampus and cerebellum. Ro 15-4513 was chosen as the tracer based on its selectivity for GABAA α5 receptors relative to other alpha subunit containing GABAA receptors and because it has been successfully used for GABAA α5 RO studies in animals and humans (see, e.g., Lingford-Hughes et al., J. Cereb. Blood Flow Metab. 22:878-89 (2002); Pym et al, Br. J. Pharmacol. 146: 817-825 (2005); and Maeda et al., Synapse 47: 200-208 (2003)). Ro 15-4513 (1 μg/kg), was dissolved in 25% hydroxyl-propyl beta-cyclodextrin and administered i.v. 20′ prior to the RO evaluations. Methyl 3,5-diphenylpyridazine-4-carboxylate (0.1-10 mg/kg) was synthesized by Nox Pharmaceuticals (India) and was dissolved in 25% hydroxyl-propyl beta-cyclodextrin and administered i.v. 15′ prior to tracer injection.
The rats were sacrificed by cervical dislocation 20′ post tracer injection. The whole brain was rapidly removed, and lightly rinsed with sterile water. Trunk blood was collected in EDTA coated eppendorf tubes and stored on wet ice until study completion. Hippocampus and cerebellum were dissected and stored in 1.5 ml eppendorf tubes, and placed on wet ice until tissue extraction. In a drug naïve rat, six cortical brain tissues samples were collected for use in generating blank and standard curve samples.
Acetonitrile containing 0.1% formic acid was added to each sample at a volume of four times the weight of the tissue sample. For the standard curve (0.1-30 ng/g) samples, a calculated volume of standard reduced the volume of acetonitrile. The sample was homogenized (FastPrep-24, Lysing Matrix D; 5.5 m/s, for 60 seconds or 7-8 watts power using sonic probe dismembrator; Fisher Scientific) and centrifuged for 16-minutes at 14,000 rpm. The (100 μl) supernatant solution was diluted by 300 μl of sterile water (pH 6.5). This solution was then mixed thoroughly and analyzed via LC/MS/MS for […] (tracer) and methyl 3,5-diphenylpyridazine-4-carboxylate.
Receptor occupancy was determined by the ratio method which compared occupancy in the hippocampus (a region of high GABAA α5 receptor density) with occupancy in the cerebellum (a region with low GABAA α5 receptor density) and additionally by a high dose of the GABAA α5 negative allosteric modulator L-655,708 (10 mg/kg, i.v.) to define full occupancy.

[4] = probe test 24 hr after training

Chain of GABAA α5 receptor (P19969 32-464 limits assumed): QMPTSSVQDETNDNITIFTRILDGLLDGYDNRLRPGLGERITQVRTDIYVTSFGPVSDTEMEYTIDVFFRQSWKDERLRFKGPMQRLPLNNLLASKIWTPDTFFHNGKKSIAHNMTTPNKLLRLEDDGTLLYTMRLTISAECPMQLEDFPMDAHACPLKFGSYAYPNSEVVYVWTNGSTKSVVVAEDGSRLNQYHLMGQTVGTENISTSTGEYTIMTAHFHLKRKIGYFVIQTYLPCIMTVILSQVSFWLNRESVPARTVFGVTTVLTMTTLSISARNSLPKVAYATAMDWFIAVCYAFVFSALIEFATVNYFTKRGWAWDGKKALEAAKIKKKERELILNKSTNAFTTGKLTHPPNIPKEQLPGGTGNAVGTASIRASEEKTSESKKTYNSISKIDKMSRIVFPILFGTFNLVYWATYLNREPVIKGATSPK
Chain of GABAA α5 receptor (P18508 39-466): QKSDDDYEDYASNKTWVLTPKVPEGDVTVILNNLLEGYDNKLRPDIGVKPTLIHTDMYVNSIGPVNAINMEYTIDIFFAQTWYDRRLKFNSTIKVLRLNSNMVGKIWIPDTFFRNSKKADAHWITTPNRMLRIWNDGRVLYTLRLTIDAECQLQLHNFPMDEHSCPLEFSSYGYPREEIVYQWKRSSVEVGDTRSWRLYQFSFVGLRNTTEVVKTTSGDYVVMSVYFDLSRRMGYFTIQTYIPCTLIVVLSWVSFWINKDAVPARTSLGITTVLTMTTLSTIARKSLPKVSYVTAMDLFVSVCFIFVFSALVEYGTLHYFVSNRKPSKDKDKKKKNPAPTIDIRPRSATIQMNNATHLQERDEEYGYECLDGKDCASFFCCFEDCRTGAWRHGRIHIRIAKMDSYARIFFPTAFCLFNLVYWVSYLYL
Chain of GABAA α5 receptor (P63079 26-473 partner): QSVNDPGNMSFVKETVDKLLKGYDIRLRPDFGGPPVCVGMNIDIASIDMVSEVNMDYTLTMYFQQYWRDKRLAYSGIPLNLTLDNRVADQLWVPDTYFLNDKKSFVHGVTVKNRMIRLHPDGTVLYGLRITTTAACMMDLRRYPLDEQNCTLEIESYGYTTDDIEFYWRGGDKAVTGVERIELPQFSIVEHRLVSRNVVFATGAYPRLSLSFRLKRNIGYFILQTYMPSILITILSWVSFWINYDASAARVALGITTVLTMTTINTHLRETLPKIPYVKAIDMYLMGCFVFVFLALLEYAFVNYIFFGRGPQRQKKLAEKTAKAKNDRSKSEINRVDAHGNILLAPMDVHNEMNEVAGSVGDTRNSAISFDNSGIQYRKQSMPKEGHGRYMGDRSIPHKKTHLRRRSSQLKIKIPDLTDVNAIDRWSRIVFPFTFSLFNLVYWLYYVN

Structure (SMILES) | time to find the escape platform (escape latency), block 1 ([1]; beginning of training) | time to find the escape platform (escape latency), block 4 ([1]; end of training) | number of crossings of target annulus compared to opposite annulus [1, 4] | time in target annulus compared to opposite annulus [1, 4] | memory performance relative to vehicle control ([2]; 3 mg/kg) | memory performance relative to vehicle control ([2]; 10 mg/kg) | Ro 15-4513 binding in hippocampus ([3]; 0.01-10 mg/kg) | cerebellum levels (binding) of Ro 15-4513 ([3]; 0.01-10 mg/kg) | GABAA α5 receptor occupancy ([3]; 10 mg/kg)
CC1(C)CC(=O)c2c(SCCCO)sc(-c3nccs3)c2C1 [6,6 dimethyl-3-(3-hydroxypropyl)thio-1-(thiazol-2-yl)-6,7-dihydro-2-benzothiophen-4(5H)-one] | about 24 seconds | about 9.6 seconds | more often | significantly more time in the target annulus | – | – | – | – | –
CCOC(=O)c1ncn2c1Cn1c(C)nnc1-c1cc(OC)ccc1-2 [ethyl 3-methoxy-7-methyl-9H-benzo[f]imidazo[1,5-a][1,2,4]triazolo[4,3-d][1,4]diazepine-10-carboxylate] | – | – | – | – | significantly improved memory performance | significantly improved memory performance | blocked; also recorded: reduced | did not affect; also recorded: without affecting | > 90%
